What all share (assay type): in vitro ADME
Data set [1] has as its target UGT1A3 (Homo sapiens, UniProt P35503). The experiment in a line: Inhibition of UGT1A3-catalyzed chenodeoxycholic acid 24-acyl-β-glucuronidation in human liver microsomes. In general terms: Microsomes from liver hold many membrane-bound enzymes, among them those of drug oxidation.
Protocol: The inhibitory effect of APINACA and typical UGT inhibitors on UGT1A1, UGT1A3, UGT1A4, UGT1A6, UGT1A9, and UGT2B7 were evaluated following our previous method by LC–MS/MS after incubation of ultrapooled human liver microsomes with a cocktail of UGT substrates [44]. […] The reactions were initiated by adding UDPGA, and the incubation continued for 60 min at 37 °C in a shaking water bath. The reactions were terminated by adding 50 μL of ice-cold acetonitrile containing internal standards (propofol glucuronide for chenodeoxycholic acid 24-acyl-β-glucuronide and mycophenolic acid glucuronide; and meloxicam for SN-38 glucuronide, trifluoperazine glucuronide, N-acetylserotonin β-D-glucuronide, and naloxone 3-β-D-glucuronide). The incubation mixtures were centrifuged at 13,000× g for 8 min at 4 °C. Next, 50 μL of each supernatant of A and B set was mixed, and aliquots (5 μL) were analyzed by LC–MS/MS. All assays were performed in triplicate, and the average values were used in calculations.
To measure the time-dependent inhibition, human liver microsomes were preincubated with the various concentrations of APINACA (final concentrations of 0.1–100 μM) and UDPGA for 30 min at 37 °C. Next, the reaction mixtures were incubated with UGT probe substrate cocktail sets for 60 min at 37 °C. The control reaction was performed by adding methanol instead of the test compounds.
Data set [2] deals with CYP2D6 (Homo sapiens, UniProt P10635). The experiment in a line: Inhibition of CYP2D6-mediated bufuralol 1′-hydroxylase in ultrapooled human liver microsomes. As to the method: (§1) The inhibitory potentials (IC50 values) of APINACA and typical CYP inhibitors on CYP 1A2, 2A6, 2C8, 2C9, 2C19, 2D6, and 3A4 activities in pooled human liver microsomes were evaluated following our previous method using a cocktail of CYP substrates, followed by LC–MS/MS [43]. […] After 3 min of preincubation at 37 °C, the reaction mixtures were incubated for 15 min at 37 °C with the addition of NADPH in a shaking water bath. The reaction was stopped by adding 100 μL of ice cold methanol containing internal standards (d9-1′-hydroxybufuralol for 1′-hydroxybufuralol, 4′-hydroxydiclofenac, 7-hydroxycoumarin, 1′-hydroxymidazolam, and 4′-hydroxymephenytoin; ^13C2, ^15N-acetaminophen for acetaminophen and N-desethylamodiaquine). The incubation mixtures were centrifuged at 13,000× g for 8 min at 4 °C, and 50 μL of each supernatant was diluted with 50 μL of water. Aliquots (5 μL) of the diluted supernatants were analyzed by LC–MS/MS. All assays were performed in triplicate, and the average values were used for subsequent calculations.
Chain of CYP2D6 (P10635 whole entry): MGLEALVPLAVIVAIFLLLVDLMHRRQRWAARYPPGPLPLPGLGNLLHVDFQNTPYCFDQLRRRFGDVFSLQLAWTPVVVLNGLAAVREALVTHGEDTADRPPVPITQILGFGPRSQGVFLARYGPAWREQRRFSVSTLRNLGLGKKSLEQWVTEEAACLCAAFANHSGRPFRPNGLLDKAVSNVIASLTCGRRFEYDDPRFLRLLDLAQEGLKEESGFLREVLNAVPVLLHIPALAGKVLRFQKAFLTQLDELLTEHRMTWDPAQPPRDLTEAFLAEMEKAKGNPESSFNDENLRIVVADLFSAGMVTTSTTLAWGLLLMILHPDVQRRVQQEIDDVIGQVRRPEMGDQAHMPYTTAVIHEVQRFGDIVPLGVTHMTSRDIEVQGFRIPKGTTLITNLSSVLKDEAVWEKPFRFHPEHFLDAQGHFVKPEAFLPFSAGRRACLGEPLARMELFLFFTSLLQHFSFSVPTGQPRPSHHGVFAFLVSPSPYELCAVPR
(§2) To measure the time-dependent inhibition, human liver microsomes were preincubated with the various concentrations of APINACA (final concentrations of 0.1−100 μM) and NADPH for 30 min at 37 °C. Next, the reaction mixtures were incubated with a seven-CYP probe substrate cocktail or bupropion for 15 min at 37 °C. […]

Data set [3] deals with T1, OCT1 (Homo sapiens, UniProt O15245).
T1 construct: host or cells: HEK293 (transient overexpression)
T1 sequence (O15245 1-554): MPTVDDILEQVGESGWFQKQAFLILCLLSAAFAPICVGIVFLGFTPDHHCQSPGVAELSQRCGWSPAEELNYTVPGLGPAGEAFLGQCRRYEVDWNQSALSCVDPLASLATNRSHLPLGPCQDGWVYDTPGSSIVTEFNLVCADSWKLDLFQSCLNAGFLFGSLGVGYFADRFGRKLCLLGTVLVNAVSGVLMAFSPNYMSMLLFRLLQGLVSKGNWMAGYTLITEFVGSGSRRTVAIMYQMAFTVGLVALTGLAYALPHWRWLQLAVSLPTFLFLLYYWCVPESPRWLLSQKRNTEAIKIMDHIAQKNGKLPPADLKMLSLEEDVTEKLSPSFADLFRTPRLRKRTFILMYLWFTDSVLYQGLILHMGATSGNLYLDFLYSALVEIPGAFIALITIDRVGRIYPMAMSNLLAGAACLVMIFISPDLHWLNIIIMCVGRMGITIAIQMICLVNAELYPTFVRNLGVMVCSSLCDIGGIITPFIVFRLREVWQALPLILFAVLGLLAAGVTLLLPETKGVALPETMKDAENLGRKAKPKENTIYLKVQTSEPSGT
The experiment in a line: Uptake of [3-H]methyl-4-phenylpyridinium in HEK293-OCT1 cells. As to the method: To examine the effects of APINACA and typical inhibitors on transporter activity, the uptake of a probe substrate into HEK293 cells overexpressing the respective solute carrier transporters was measured in the presence of APINACA (final concentrations of 0–250 μM) or typical inhibitors for 5 min. The concentrations and probe substrates were selected as follows: 0.1 μM [3-H]MPP^+ (for OCT1 and OCT2), 0.1 μM [3-H]PAH (for OAT1), 0.1 μM [3-H]ES (for OAT3 and OATP1B1), and 0.1 μM [3-H]EG (for OATP1B3).
12.5 (Systat Software, Inc.; San Jose, CA, USA). […] 1.1 (Systat Software, Inc.).

Data set [4] has as its target T2, BCRP (Homo sapiens, UniProt Q9UNQ0).
T2 sequence (Q9UNQ0 1-655): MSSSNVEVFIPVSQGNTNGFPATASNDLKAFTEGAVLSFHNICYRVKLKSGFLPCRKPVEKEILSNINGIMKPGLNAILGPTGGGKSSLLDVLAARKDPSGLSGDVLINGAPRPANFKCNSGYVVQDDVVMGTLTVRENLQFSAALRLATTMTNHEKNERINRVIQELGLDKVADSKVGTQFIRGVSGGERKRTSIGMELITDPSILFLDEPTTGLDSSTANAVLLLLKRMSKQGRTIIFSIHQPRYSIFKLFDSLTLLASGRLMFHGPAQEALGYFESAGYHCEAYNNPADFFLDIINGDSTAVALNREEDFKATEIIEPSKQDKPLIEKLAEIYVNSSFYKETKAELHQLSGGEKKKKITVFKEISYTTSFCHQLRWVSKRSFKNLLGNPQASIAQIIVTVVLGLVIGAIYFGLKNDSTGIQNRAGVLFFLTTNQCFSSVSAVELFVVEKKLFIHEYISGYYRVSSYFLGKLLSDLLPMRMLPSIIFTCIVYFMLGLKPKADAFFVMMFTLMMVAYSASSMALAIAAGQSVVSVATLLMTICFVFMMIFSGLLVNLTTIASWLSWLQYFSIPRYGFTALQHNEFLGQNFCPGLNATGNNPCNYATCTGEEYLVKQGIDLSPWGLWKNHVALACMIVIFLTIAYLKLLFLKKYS
The experiment in a line: B to A transport of [3-H]estrone-3-sulfate in LLC-PK1-BCRP cells. To be noted: human, LLC-PK1-BCRP cell monolayers on filter membranes, probe [3H]estrone-3-sulfate (0.1 μM), B to A transport.

Data set [5] concerns the target CYP2C8 (Homo sapiens, UniProt P10632). The experiment in a line: Inhibition of CYP2C8-catalyzed amodiaquine N-deethylase in ultrapooled human liver microsomes. As for the experimental part:
as §1, §2

Each structure is given as a SMILES string. Like-named read-outs stand apart in the source and are kept apart here. A value given as a limit tells only on which side of the number the result lay.

The IC50 is the concentration needed to halve the response being measured.

Chain of UGT1A3 (P35503 29-534): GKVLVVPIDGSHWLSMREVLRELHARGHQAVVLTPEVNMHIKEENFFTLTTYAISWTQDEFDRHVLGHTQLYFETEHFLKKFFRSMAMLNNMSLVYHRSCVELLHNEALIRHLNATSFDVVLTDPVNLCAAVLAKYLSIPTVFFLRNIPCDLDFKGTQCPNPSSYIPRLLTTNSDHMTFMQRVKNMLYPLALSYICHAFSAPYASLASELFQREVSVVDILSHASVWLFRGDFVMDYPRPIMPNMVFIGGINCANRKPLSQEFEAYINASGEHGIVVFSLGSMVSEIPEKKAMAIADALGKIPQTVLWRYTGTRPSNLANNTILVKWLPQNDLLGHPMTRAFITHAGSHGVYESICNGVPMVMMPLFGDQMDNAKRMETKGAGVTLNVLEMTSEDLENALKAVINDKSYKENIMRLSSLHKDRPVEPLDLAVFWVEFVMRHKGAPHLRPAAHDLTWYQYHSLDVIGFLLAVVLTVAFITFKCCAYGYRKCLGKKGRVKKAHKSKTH
Chain of CYP2C8 (P10632 whole entry): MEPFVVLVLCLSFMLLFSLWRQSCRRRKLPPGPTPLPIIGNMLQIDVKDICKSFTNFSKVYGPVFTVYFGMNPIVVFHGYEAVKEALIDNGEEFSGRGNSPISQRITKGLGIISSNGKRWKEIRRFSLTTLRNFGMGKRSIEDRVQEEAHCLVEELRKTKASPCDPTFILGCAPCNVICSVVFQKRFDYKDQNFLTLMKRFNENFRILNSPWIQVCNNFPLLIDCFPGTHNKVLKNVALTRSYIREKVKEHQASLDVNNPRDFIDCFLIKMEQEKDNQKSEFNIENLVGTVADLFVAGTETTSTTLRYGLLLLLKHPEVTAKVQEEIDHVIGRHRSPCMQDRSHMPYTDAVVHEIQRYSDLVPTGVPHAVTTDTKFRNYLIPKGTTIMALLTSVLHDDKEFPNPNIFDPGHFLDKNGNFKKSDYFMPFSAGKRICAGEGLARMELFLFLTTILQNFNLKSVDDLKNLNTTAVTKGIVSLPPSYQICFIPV

On to `CCCCCn1nc(C(=O)NC23CC4CC(CC(C4)C2)C3)c2ccccc21` [APINACA, N-(1-adamantyl)-1-pentyl-1H-indazole-3-carboxamide], for which the IC50 in data set [1] is greater than 100 µM; in data set [1] (read-out: IC50 UGT1A3 chenodeoxycholic acid glucuronidation, with 30-min preincubation, pooled human liver microsomes, 30-min preincubation with UDPGA (○)) it was greater than 100 µM; in data set [2] it was greater than 100 µM; in data set [2] (read-out: IC50 (μM) With Preincubation, CYP2D6 bufuralol 1′-hydroxylase, ultrapooled human liver microsomes, 30-min preincubation with NADPH), greater than 100 µM; in data set [3], greater than 250 µM; in data set [4] it was greater than 100 µM. Further, the IC50 is greater than 100 µM in data set [5] and greater than 100 µM in data set [5] (read-out: IC50 (μM) With Preincubation, CYP2C8 amodiaquine N-deethylase, ultrapooled human liver microsomes, 30-min preincubation with NADPH).
